The results in this text go back to a melting point compilation (Tetko et al.).

In the case of `Cc1cc2oc(=O)cc(CCl)c2cc1C(C)C`, the melting point was in the range of 132 to 134 °C. In the case of `O=C(c1ccccn1)N1CCNCC1` it was 231 to 233 °C; in that of `NNc1c(F)cc(F)cc1Cl`, 87 to 89 °C.

Compound `NNc1ccc(S(N)(=O)=O)cn1` returned a melting point of 190 to 192 °C. The result for `CC(=O)N(C)c1ccccc1C(=O)O` reads 196 to 198 °C; that for `COC(=O)COc1ccc(C(=O)O)cc1`, 172 to 174 °C; that for `CCC1(c2ccc(F)cc2)NC(=O)NC1=O` (stereo not given), 95 to 97 °C. Take `FC(F)(F)c1cnc(-n2cccn2)c(Cl)c1`: the melting point fell in the range of 50 to 52 °C. Regarding `COc1cccc(C(=O)O)c1OC(F)F`, the melting point was 152 to 154 °C. `Cc1cc(C)cc(C2(C(=O)O)CCC2)c1` yielded a melting point of 132 to 134 °C. In the case of `Nc1nnc(C2CCCCC2)o1` it was 222 to 224 °C. For the compound `COC(=O)c1c(N)cccc1F`, the melting point fell in the range of 53 to 55 °C. The result for `CC(Oc1cccc(O)c1)C(N)=O` (stereo not given) reads 129 to 131 °C; that for `Nc1ncn(Cc2ccncc2)n1`, 156 to 158 °C; that for `CC(=O)c1csc(N)n1`, 165 to 177 °C.

`O=C(O)Cc1cccc2cccnc12` displayed a melting point of 130 to 132 °C. The compound `Cc1ccc(-c2nnc3n2CCCCC3)cc1N` had a melting point of 171 to 173 °C.

In the case of `CCOc1ccc2c(c1)NC(=O)C2=O`, the melting point was 226 to 228 °C. In the case of `Cc1cc(C(=O)O)ccc1NC(=O)OC(C)(C)C` it was 178 to 180 °C; in that of `N#Cc1ccc(OCc2ccccc2)nc1`, 71 to 73 °C. In the case of `Cc1nc2ccccn2c1I` it was 123 to 125 °C. In the case of `CC(C)(C)OC(=O)N1CCc2ccccc21` it was 46 to 50 °C. Compound `Cc1ccc(C(=O)NC=C(Cl)Cl)cc1` had a melting point of 96 to 98 °C. `CS(=O)(=O)c1ccccc1NN` yielded a melting point of 75 to 77 °C.

Compound `Cc1cccc(NC(=O)CN2CCNCC2)c1C` displayed a melting point of 55 to 57 °C. Compound `Cc1cc(C)c(C=O)cc1C` displayed a melting point of 41 to 46 °C. `O=C(O)c1cnc(-c2ccoc2)s1`: the melting point fell in the range of 226 to 228 °C. The result for `NC(=O)C(N)c1ccc(Br)cc1` (stereo not given) reads 119 to 121 °C; that for `COc1cc(C(=O)O)on1`, 145 to 147 °C; that for `CCc1cccc2c(C(=O)O)c[nH]c12`, 193 to 195 °C. In the case of `CC(Oc1cccc(C#N)c1)C(=O)O` (stereo not given) it was 110 to 112 °C; in that of `Nc1cccc(NC(=O)CCn2cccn2)c1`, 104 to 106 °C. The result for `NC(=S)NCc1ccc(Br)cc1` reads 159 to 161 °C. For the compound `O=C(O)c1cccc(Br)c1I`, the melting point is 139 to 141 °C. For the compound `Cn1ccc(CCl)cc1=O`, the melting point fell in the range of 64 to 66 °C. `NC(=O)N1CCc2ccccc2C1` displayed a melting point of 170 to 172 °C. On to `CNC(=O)c1cccc(N)n1`, for which the melting point is 102 to 104 °C.

In the case of `O=C(O)c1cnn(-c2ccccc2)n1`, the melting point was 183 to 185 °C. With `NC(=O)c1ccc(Br)c(F)c1`, the melting point fell in the range of 167 to 169 °C. In the case of `CS(=O)(=O)c1ncc[nH]1` it was 206 to 208 °C; in that of `COc1ccc(C(=O)O)cn1`, 172 to 174 °C; in that of `N#CCc1ccc(Oc2ncccn2)cc1`, 70 to 72 °C. In the case of `CCOC(=O)c1c(C)c2c(=O)[nH]nc(S)n2c1C` it was 218 to 220 °C; in that of `O=C(O)c1cc(F)cc2[nH]c(S)nc12`, 374 to 376 °C; in that of `COc1cccc(COc2cccc(Cl)c2C=O)c1`, 64 to 66 °C. The result for `Cc1c(Cl)cnc(Cl)c1C#N` reads 76 to 78 °C; that for `N#Cc1cnc2ccccc2c1N1CCNCC1`, 160 to 162 °C; that for `Cc1cc(NC(=O)OC(C)(C)C)ccc1N`, 103 to 105 °C.

Regarding `Cc1ccc(N2CCc3c(N)cccc3C2)nn1`, the melting point was in the range of 144 to 146 °C. Compound `COC(=O)c1ccc(N)s1` had a melting point of 115 to 117 °C. The result for `COCC(C)NC(=O)CC#N` (stereo not given) reads 40 to 44 °C; that for `Cc1noc2nc(-c3cccs3)cc(C(=O)O)c12`, 138 to 140 °C. The result for `CCn1nc(N)cc1C(F)(F)F` reads 54 to 56 °C; that for `O=C(O)C1(C(=O)NC2CC2)CC1`, 145 to 147 °C; that for `O=C(O)c1cc(/C=C/c2ccc(OC(F)(F)F)cc2)nc2ccc(Br)cc12`, 311 to 313 °C.

`CC(=O)NCCCCCC(N)=O` had a melting point of 112 to 114 °C. For `O=C(O)c1ccc(CN2C(=O)C=CC2=O)cc1`, the melting point lay within 163 to 165 °C. In the case of `NNC(=O)CSc1nc2ccccc2o1` it was 169 to 171 °C; in that of `NC(=O)CNCc1ccc(OCc2ccccc2)cc1`, 140 to 142 °C. The result for `COc1ccc(NS(=O)(=O)c2cc(C(=O)O)ccc2C)cc1` reads 71 to 73 °C.

Compound `CN(C)C(=O)c1ccc(C(=O)O)cc1` yielded a melting point of 178 to 180 °C. The result for `COc1ccc(C(=O)O)cc1S(=O)(=O)Cl` reads 153 to 155 °C. In the case of `COc1ccc(CC#N)cc1[N+](=O)[O-]` it was 84 to 86 °C. The result for `CCc1cccnc1N` reads 38 to 40 °C; that for `CC(=O)Nc1ccc(N)c(Br)c1`, 79 to 81 °C.

The compound `CCN(CC)S(=O)(=O)c1ccc(Oc2cccc(C)c2)c(N)c1` showed a melting point of 122 to 124 °C. In the case of `NC(=O)Nc1ccc(F)c(Cl)c1` it was 166 to 168 °C; in that of `NS(=O)(=O)c1nc2ccccc2[nH]1`, 215 to 217 °C; in that of `Clc1nc(C=Cc2ccc(Br)cc2)nc2sc3c(c12)CCCC3`, 168 to 170 °C. In the case of `Cc1cc(F)c(C(=O)CCl)cc1F`, the melting point lay in the range of 93 to 95 °C. The compound `O/N=C/c1c(Cl)ncn1-c1ccccc1` registered a melting point of 179 to 181 °C. In the case of `CC(C(=O)O)c1ccc(Br)s1` (stereo not given) it was 55 to 57 °C. In the case of `COc1ccc(C2CNC(=O)C2)cc1` (stereo not given) it was 126 to 128 °C.

The compound `CCC(C)(C)C1CCc2c(sc(NC(=O)CCl)c2C#N)C1` (stereo not given) registered a melting point of 100 to 102 °C. The result for `Clc1nnc(-c2cccc3ncccc23)s1` reads 143 to 145 °C; that for `NC(=O)CCn1ccnc1`, 137 to 139 °C. In the case of `O=C(CCC1CCCO1)NC1CCC(C(=O)O)CC1` (stereo not given) it was 199 to 201 °C; in that of `Cc1cc(C(=O)O)ncn1`, 129 to 131 °C; in that of `CCOC(=O)Cn1nc(C)c(C=O)c1C`, 79 to 81 °C. In turn, `CCOC(=O)Cc1csc(NC(=O)OCC(F)(F)F)n1` showed a melting point of 120 to 122 °C.

In the case of `Nc1ncc(Cc2ccc(Cl)c(Cl)c2)s1`, the melting point was in the range of 83 to 85 °C.

Consider `COc1ccc([N+](=O)[O-])c2cccnc12`, for which the melting point was in the range of 145 to 147 °C.

Turning to `O=Cc1ccccc1OCc1cccnc1`, the melting point is 57 to 59 °C. The result for `Nc1cc(-c2ccc(Br)o2)no1` reads 144 to 146 °C; that for `Cn1cnc2c(Br)cccc21`, 101 to 103 °C; that for `O=Cc1cn(-c2ccccc2)nc1-c1cccnc1`, 110 to 112 °C. The result for `Clc1nc(CN2CCCCC2)nc2scc(-c3cccs3)c12` reads 89 to 91 °C.

The compound `COc1ccc(N)cc1NC(=O)OC(C)(C)C` gave a melting point of 108 to 110 °C.

With `Cc1cc(S(=O)(=O)Cl)cc(C)c1F`, the melting point lay in the range of 88 to 90 °C. The result for `Cc1c(C(=O)O)cnc2ccccc12` reads 254 to 256 °C; that for `CC(=O)N(CCc1ccccc1)CC(=O)O`, 149 to 151 °C.

`Cc1nn(Cc2ccccc2)c(C)c1C(=O)O`: the melting point fell in the range of 137 to 139 °C. In the case of `O=C1CCc2cc(Br)c(S(=O)(=O)Cl)cc2N1` it was 224 to 226 °C; in that of `O=C(Nc1ccccc1)c1cccc(O)c1`, 151 to 153 °C; in that of `NC1CCC(c2nc(-c3ccccc3)n[nH]2)CC1` (stereo not given), 163 to 165 °C.

In turn, `NS(=O)(=O)c1ccc2c(c1)COC2` came in with a melting point of 146 to 148 °C. As to `COc1ccccc1C(C#N)NC(=O)OC(C)(C)C` (stereo not given), the melting point lay in the range of 79 to 81 °C. In the case of `Nc1cc(N)c(F)cc1F` it was 111 to 113 °C; in that of `Cc1cc(NC(=O)C2CCCC2)sc1C(=O)O`, 174 to 176 °C.

In turn, `O=C1CC(Cc2ccc(C(=O)O)cc2)C(=O)N1` (stereo not given) gave a melting point of 243 to 245 °C. The result for `CC(=O)CC(=O)Nc1cccc(Cl)c1` reads 105 to 107 °C; that for `O=C(O)c1cc(C2CC2)nc2ccccc12`, 208 to 210 °C; that for `O=C(O)C1(Br)CCC1`, 40 to 42 °C. In the case of `Cc1cc(C(=O)CCl)c(C)n1-c1ncn[nH]1`, the melting point is 180 to 182 °C. The result for `O=C(O)c1cccc2[nH]c(=O)oc12` reads 329 to 331 °C; that for `CCc1[nH]n(C)c(=N)c1-c1ccc2c(c1)OCO2`, 154 to 156 °C. Take `N#CCNc1cccc(Cl)c1`: the melting point lay in the range of 51 to 53 °C. The result for `CC1CCc2c(sc(N)c2C#N)C1` (stereo not given) reads 145 to 147 °C; that for `O=C(c1ccc(Cl)c(Cl)c1)N1CCNCC1`, 74 to 76 °C.

The compound `Sc1nnnn1-c1ccc(Cl)cc1` gave a melting point of 162 to 164 °C. `Cc1nc(-c2cccc(Cl)c2)sc1C(=O)O` yielded a melting point of 191 to 193 °C. For the compound `CCOC(=O)c1cc(-c2ccccc2)sc1N`, the melting point lay within 118 to 120 °C. Compound `NC(=O)c1cc(Cl)ccn1` gave a melting point of 157 to 159 °C. `NC(=O)N1CCC(N)CC1`: the melting point was in the range of 64 to 66 °C. `COC(=O)c1cc2c(nc1N)CCC2` gave a melting point of 132 to 134 °C. For the compound `O=C(O)CSCCc1ccccc1`, the melting point was in the range of 56 to 58 °C. The compound `O=[N+]([O-])c1c[nH]ccc1=NCC1CCCO1` (stereo not given) displayed a melting point of 72 to 74 °C. The compound `Brc1ccc(-c2cscn2)cc1` came in with a melting point of 69 to 71 °C. `CC(=O)c1ccc(S(N)(=O)=O)cc1`: the melting point lay in the range of 178 to 180 °C. Compound `Nc1ccnc(CO)c1` yielded a melting point of 99 to 101 °C. In the case of `NC(=S)c1cccc([N+](=O)[O-])c1`, the melting point was 132 to 134 °C. The compound `CC(Cl)C(=O)c1ccc(C(C)(C)C)cc1` (stereo not given) yielded a melting point of 18 to 20 °C.

In turn, `Cc1sc(=O)[nH]c1C(C)C` came in with a melting point of 129 to 131 °C. The result for `O=C1CC2(Cc3ccccc3C2)C(=O)N1` reads 173 to 175 °C; that for `CC(C)CC1(C)CC(=O)NC1=O` (stereo not given), 81 to 83 °C.
